Source: patent US20260098061A1, “EPHA2-BINDING PENDING PEPTIDE AND COMPOSITION COMPRISING SAME” (PeptiDream Inc., priority 2022, published 2026)
Numbered stars: 1 amine (or outer) side, 2 acyl side, 3 side chain; on linkers, the order of the positions; unused ones are H or OH. Bridge positions count the residues as written; N and C are the ends. Square brackets hold non-standard residues; d marks the D form. Side chains are listed from the residue outwards. Peptide text beside a SMILES is read from it. * marks the point of attachment. NH(1-deoxy-D-glucityl) = OC[C@@H](O)[C@@H](O)[C@H](O)[C@@H](O)CN*; NMePhe(4-Cl) = CN[C@@H](Cc1ccc(Cl)cc1)C(=O)O; Piperazinyl(4-CH2COOH) = O=C(O)CN1CCN(*)CC1; Trp(1-Me) = Cn1cc(C[C@H](N)C(=O)O)c2ccccc21; NMe3Pal = CN[C@@H](Cc1cccnc1)C(=O)O; NMeF = CN[C@@H](Cc1ccccc1)C(=O)O; Gly(cBu) = N[C@H](C(=O)O)C1CCC1; NMeE = CN[C@@H](CCC(=O)O)C(=O)O; Aad = N[C@@H](CCCC(=O)O)C(=O)O; NMeN = CN[C@@H](CC(N)=O)C(=O)O; dAhp(2) = CCCCC[C@@H](N)C(=O)O; CO = O=C([*:1])[*:2]

These compounds were tested against T1, Recombinant Human EphA2 Fc Protein (Homo sapiens, UniProt P29317) (assay: SPR interaction analysis (Biacore T200), kinetics of peptides against EphA2). Conditions: Recombinant Human EphA2 Fc Protein captured by Human Antibody Capture kit; single-cycle kinetics; 25° C.; HBS-P+ buffer with 1% DMSO.
T1 construct: purchased Elabscience
Format: binding
Procedure, shortened: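 On a Biacore T200 at 25° C, Fc-tagged human EphA2 was captured via anti-human antibody; peptides ran as five serial dilutions in HBS-P+ pH 7.4 with 1% DMSO by single-cycle kinetics. Baseline-subtracted data fitted for ka and kd, from which KD was derived.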

Kd, < 1 nM:
CC(C)[C@@H]1NC(=O)[C@H](Cc2cn(C)c3ccccc23)NC(=O)[C@H](CC(N)=O)NC(=O)[C@H](CCCC(N)=O)NC(=O)[C@H](C2CCC2)NC(=O)[C@H](CC(N)=O)NC(=O)[C@H](Cc2cccnc2)N(C)C(=O)[C@@H](C)NC(=O)CSC[C@@H](C(N)=O)NC(=O)[C@H](CCCC(N)=O)NC(=O)[C@H]([C@@H](C)O)NC(=O)[C@H](Cc2cn(C)c3ccccc23)NC1=O [PDC_EphA2-00010010, da-Me3Py-N-Cbg-Hgn-N-W1Me-V-W1Me-T-Hgn-C-NH2] ({CH2CO}-[dA][NMe3Pal]N[Gly(cBu)][Aad](NH2)N[Trp(1-Me)]V[Trp(1-Me)]T[Aad](NH2)C-NH2; thioether N-12)
CC(C)[C@@H]1NC(=O)[C@H](Cc2cn(C)c3ccccc23)NC(=O)[C@H](CC(N)=O)N(C)C(=O)[C@H](CCCC(N)=O)NC(=O)[C@H](C2CCC2)NC(=O)[C@H](CC(N)=O)NC(=O)[C@H](Cc2cccnc2)N(C)C(=O)[C@@H](C)NC(=O)CSC[C@@H](C(N)=O)NC(=O)[C@H](CCCC(N)=O)NC(=O)[C@H]([C@@H](C)O)NC(=O)[C@H](Cc2cn(C)c3ccccc23)NC1=O [PDC_EphA2-00010011, da-Me3Py-N-Cbg-Hgn-MeN-W1Me-V-W1Me-T-Hgn-C-NH2] ({CH2CO}-[dA][NMe3Pal]N[Gly(cBu)][Aad](NH2)[NMeN][Trp(1-Me)]V[Trp(1-Me)]T[Aad](NH2)C-NH2; thioether N-12)
CC(C)[C@@H]1NC(=O)[C@H](Cc2cn(C)c3ccccc23)NC(=O)[C@H](Cc2cccnc2)N(C)C(=O)[C@H](CCCC(N)=O)NC(=O)[C@H](C2CCC2)NC(=O)[C@H](CC(N)=O)NC(=O)[C@H](Cc2cccnc2)N(C)C(=O)[C@@H](C)NC(=O)CSC[C@@H](C(N)=O)NC(=O)[C@H](CCCC(N)=O)NC(=O)[C@H]([C@@H](C)O)NC(=O)[C@H](Cc2cn(C)c3ccccc23)NC1=O [PDC_EphA2-00010012, da-Me3Py-N-Cbg-Hgn-Me3Py-W1Me-V-W1Me-T-Hgn-C-NH2] ({CH2CO}-[dA][NMe3Pal]N[Gly(cBu)][Aad](NH2)[NMe3Pal][Trp(1-Me)]V[Trp(1-Me)]T[Aad](NH2)C-NH2; thioether N-12)
CC(C)[C@@H]1NC(=O)[C@H](Cc2cn(C)c3ccccc23)NC(=O)[C@H](CC(N)=O)N(C)C(=O)[C@H](CCCC(N)=O)NC(=O)[C@H](C2CCC2)NC(=O)[C@H](CC(N)=O)NC(=O)[C@H](Cc2ccccc2)N(C)C(=O)[C@@H](C)NC(=O)CSC[C@@H](C(N)=O)NC(=O)[C@H](CCCC(N)=O)NC(=O)[C@H]([C@@H](C)O)NC(=O)[C@H](Cc2cn(C)c3ccccc23)NC1=O [PDC_EphA2-00013693, da-MeF-N-Cbg-Hgn-MeN-W1Me-V-W1Me-T-Hgn-C-NH2] ({CH2CO}-[dA][NMeF]N[Gly(cBu)][Aad](NH2)[NMeN][Trp(1-Me)]V[Trp(1-Me)]T[Aad](NH2)C-NH2; thioether N-12)
C[C@H]1NC(=O)CSC[C@@H](C(N)=O)NC(=O)[C@H](CCCC(N)=O)NC(=O)[C@H]([C@@H](C)O)NC(=O)[C@H](Cc2cn(C)c3ccccc23)NC(=O)[C@H](CCC(=O)NC[C@H](O)[C@@H](O)[C@H](O)[C@H](O)CO)NC(=O)[C@H](Cc2cn(C)c3ccccc23)NC(=O)[C@H](CC(N)=O)N(C)C(=O)[C@H](CCCC(N)=O)NC(=O)[C@H](C2CCC2)NC(=O)[C@H](CC(N)=O)NC(=O)[C@H](Cc2ccccc2)N(C)C1=O [PDC_EphA2-00013703, da-MeF-N-Cbg-Hgn-MEN-W1Me-Qglucamine-W1Me-T-Hgn-C-NH2] ({CH2CO}-[dA][NMeF]N[Gly(cBu)][Aad](NH2)[NMeN][Trp(1-Me)]E(NH(1-deoxy-D-glucityl))[Trp(1-Me)]T[Aad](NH2)C-NH2; thioether N-12)
C[C@H]1NC(=O)CSC[C@@H](C(N)=O)NC(=O)[C@H](CCCC(N)=O)NC(=O)[C@H]([C@@H](C)O)NC(=O)[C@H](Cc2cn(C)c3ccccc23)NC(=O)[C@H](CCC(=O)NC[C@H](O)[C@@H](O)[C@H](O)[C@H](O)CO)NC(=O)[C@H](Cc2cn(C)c3ccccc23)NC(=O)[C@H](Cc2cccnc2)N(C)C(=O)[C@H](CCCC(N)=O)NC(=O)[C@H](C2CCC2)NC(=O)[C@H](CC(N)=O)NC(=O)[C@H](Cc2ccccc2)N(C)C1=O [PDC_EphA2-00013704, da-MeF-N-Cbg-Hgn-Me3Py-W1Me-Qglucamine-W1Me-T-Hgn-C-NH2] ({CH2CO}-[dA][NMeF]N[Gly(cBu)][Aad](NH2)[NMe3Pal][Trp(1-Me)]E(NH(1-deoxy-D-glucityl))[Trp(1-Me)]T[Aad](NH2)C-NH2; thioether N-12)
C[C@H]1NC(=O)CSC[C@@H](C(N)=O)NC(=O)[C@H](CCCC(N)=O)NC(=O)[C@H]([C@@H](C)O)NC(=O)[C@H](Cc2cn(C)c3ccccc23)NC(=O)[C@H](CCC(=O)NC[C@H](O)[C@@H](O)[C@H](O)[C@H](O)CO)NC(=O)[C@H](Cc2cn(C)c3ccccc23)NC(=O)[C@H](Cc2cccnc2)N(C)C(=O)[C@H](CCCC(N)=O)NC(=O)[C@H](C2CCC2)NC(=O)[C@H](CC(N)=O)NC(=O)[C@H](Cc2cccnc2)N(C)C1=O [PDC_EphA2-00013705, da-Me3Py-N-Cbg-Hgn-Me3Py-W1Me-Qglucamine-W1Me-T-Hgn-C-NH2] ({CH2CO}-[dA][NMe3Pal]N[Gly(cBu)][Aad](NH2)[NMe3Pal][Trp(1-Me)]E(NH(1-deoxy-D-glucityl))[Trp(1-Me)]T[Aad](NH2)C-NH2; thioether N-12)
C[C@H]1NC(=O)CSC[C@@H](C(N)=O)NC(=O)[C@H](CCCC(N)=O)NC(=O)[C@H]([C@@H](C)O)NC(=O)[C@H](Cc2cn(C)c3ccccc23)NC(=O)[C@H](CCC(=O)NC[C@H](O)[C@@H](O)[C@H](O)[C@H](O)CO)NC(=O)[C@H](Cc2cn(C)c3ccccc23)NC(=O)[C@H](Cc2ccccc2)N(C)C(=O)[C@H](CCCC(N)=O)NC(=O)[C@H](C2CCC2)NC(=O)[C@H](CC(N)=O)NC(=O)[C@H](Cc2ccccc2)N(C)C1=O [PDC_EphA2-00013917, da-MeF-N-Cbg-Hgn-MeF-W1Me-QGlucamine-W1Me-T-Hgn-C-NH2] ({CH2CO}-[dA][NMeF]N[Gly(cBu)][Aad](NH2)[NMeF][Trp(1-Me)]E(NH(1-deoxy-D-glucityl))[Trp(1-Me)]T[Aad](NH2)C-NH2; thioether N-12)
CCCCC[C@H]1NC(=O)CSC[C@@H](C(N)=O)NC(=O)[C@H](CCCC(N)=O)NC(=O)[C@H]([C@@H](C)O)NC(=O)[C@H](Cc2cn(C)c3ccccc23)NC(=O)[C@H](CCCCNC(=O)N2CCN(CC(=O)O)CC2)NC(=O)[C@H](Cc2cn(C)c3ccccc23)NC(=O)[C@H](Cc2ccccc2)N(C)C(=O)[C@H](CCCC(=O)O)NC(=O)[C@H](CC(C)C)NC(=O)[C@H](CC(N)=O)NC(=O)[C@H](Cc2cccnc2)N(C)C1=O [PDC_EphA2-00018526, dahp-Me3Py-N-L-Hgl-MeF-W1Me-KCOpipzaa-W1Me-T-Hgn-C-NH2] ({CH2CO}-[dAhp(2)][NMe3Pal]NL[Aad][NMeF][Trp(1-Me)]K([CO-Piperazinyl(4-CH2COOH)])[Trp(1-Me)]T[Aad](NH2)C-NH2; thioether N-12)
CC(C)C[C@@H]1NC(=O)[C@H](CC(N)=O)NC(=O)[C@H](Cc2cccnc2)N(C)C(=O)[C@@H](C)NC(=O)CSC[C@@H](C(N)=O)NC(=O)[C@H](CCCC(N)=O)NC(=O)[C@H]([C@@H](C)O)NC(=O)[C@H](Cc2cn(C)c3ccccc23)NC(=O)[C@H](CCCCNC(=O)N2CCN(CC(=O)O)CC2)NC(=O)[C@H](Cc2cn(C)c3ccccc23)NC(=O)[C@H](Cc2ccc(Cl)cc2)N(C)C(=O)[C@H](CCCC(=O)O)NC1=O [PDC_EphA2-00018527, da-Me3Py-N-L-Hgl-MeF4C-W1Me-KCOpipzaa-W1Me-T-Hgn-C-NH2] ({CH2CO}-[dA][NMe3Pal]NL[Aad][NMePhe(4-Cl)][Trp(1-Me)]K([CO-Piperazinyl(4-CH2COOH)])[Trp(1-Me)]T[Aad](NH2)C-NH2; thioether N-12)
CNC(=O)C[C@@H]1NC(=O)[C@H]([C@@H](C)O)NC(=O)[C@H](Cc2cn(C)c3ccccc23)NC(=O)[C@H](CCCCNC(=O)N2CCN(CC(=O)O)CC2)NC(=O)[C@H](Cc2cn(C)c3ccccc23)NC(=O)[C@H](Cc2ccccc2)N(C)C(=O)[C@H](CCCC(=O)O)NC(=O)[C@H](CC(C)C)NC(=O)[C@H](CC(N)=O)NC(=O)[C@H](Cc2cccnc2)N(C)C(=O)[C@@H](C)NC(=O)CSC[C@@H](C(N)=O)NC1=O [PDC_EphA2-00018528, da-Me3Py-N-L-Hgl-MeF-W1Me-KCOpipzaa-W1Me-T-Nmm-C-NH2] ({CH2CO}-[dA][NMe3Pal]NL[Aad][NMeF][Trp(1-Me)]K([CO-Piperazinyl(4-CH2COOH)])[Trp(1-Me)]TD(NHMe)C-NH2; thioether N-12)
CC(C)C[C@@H]1NC(=O)[C@H](CC(N)=O)NC(=O)[C@H](Cc2cccnc2)N(C)C(=O)[C@@H](C)NC(=O)CSC[C@@H](C(N)=O)NC(=O)[C@H](CC(=O)N(C)C)NC(=O)[C@H]([C@@H](C)O)NC(=O)[C@H](Cc2cn(C)c3ccccc23)NC(=O)[C@H](CCCCNC(=O)N2CCN(CC(=O)O)CC2)NC(=O)[C@H](Cc2cn(C)c3ccccc23)NC(=O)[C@H](Cc2ccccc2)N(C)C(=O)[C@H](CCCC(=O)O)NC1=O [PDC_EphA2-00018529, da-Me3Py-N-L-Hgl-MeF-W1Me-KCOpipzaa-W1Me-T-Ndm-C-NH2] ({CH2CO}-[dA][NMe3Pal]NL[Aad][NMeF][Trp(1-Me)]K([CO-Piperazinyl(4-CH2COOH)])[Trp(1-Me)]TD(NMe2)C-NH2; thioether N-12)
CCCCC[C@H]1NC(=O)CSC[C@@H](C(N)=O)NC(=O)[C@H](CCCC(N)=O)NC(=O)[C@H]([C@@H](C)O)NC(=O)[C@H](Cc2cn(C)c3ccccc23)NC(=O)[C@H](CCCCNC(=O)N2CCN(CC(=O)O)CC2)NC(=O)[C@H](Cc2cn(C)c3ccccc23)NC(=O)[C@H](CCC(=O)O)N(C)C(=O)[C@H](CCCC(N)=O)NC(=O)[C@H](CC(C)C)NC(=O)[C@H](CC(N)=O)NC(=O)[C@H](Cc2cccnc2)N(C)C1=O [PDC_EphA2-00018530, dahp-Me3Py-N-L-Hgn-MeE-W1Me-KCOpipzaa-W1Me-T-Hgn-C-NH2] ({CH2CO}-[dAhp(2)][NMe3Pal]NL[Aad](NH2)[NMeE][Trp(1-Me)]K([CO-Piperazinyl(4-CH2COOH)])[Trp(1-Me)]T[Aad](NH2)C-NH2; thioether N-12)
